# Patent US5538977A, “3-Substituted-7-[3-(imidazol-1-yl)phenyl]-pyrazolo[1,5-a]pyrimidines” (American Cyanamid Company, priority 1995, dated 1996)
# Columns and labels:
# [1] = Nonconditioned passive avoidance (conflict) test in rats; type: in vivo, rat (Wistar strain); conditions: 25 mg/kg oral or i.p., 30 to 60 min, active if number of shocks received is significantly higher than control group by Mann-Witney U test
# Procedure: Another test which has been used to assess antianxiety effects is a nonconditioned passive avoidance procedure described by [J. R. Vogel, B. Beer and D. E. Clody, "A Simple and Reliable Conflict Procedure for Testing Anti-Anxiety Agents", Psychopharmacologia, 21, 1-7(1971)]. A conflict situation is induced in rats by a modification of this method.
# Groups of 6 naive, Wistar strain rats, weighing 200-240 g each were deprived of water for 48 hours and food for 24 hours. The test compounds were administered in single or graded, oral or intraperitoneal doses, suspended in a 2% starch vehicle containing 0.5% v/v polyethylene glycol and one drop of polysorbate 80. Control animals received the vehicle alone. At 30 to 60 minutes each rat was placed in an individual plexiglass chamber. Water was available ad libitum from a tap located in the rear of the chamber. A 0.7 milliampere DC shocking current was established between the stainless steel grid floor and the tap. After 20 licks of nonshocked drinking, a shock was delivered for 2 seconds and then further shocks were delivered on a ratio of one shock for 2 seconds for every 20 licks. This was continued for a total of 3 minutes. The number of shocks taken by each rat during the 3 minute interval was recorded and compared to a control group. […]
# [2] = tested on: brain-specific receptors of rats (3H-benzodiazepine binding); assay: Inhibition of the binding of 3H-benzodiazepine to brain-specific receptors of rats; parameters: species or system rat (Wistar strain); conditions: rat cortex P2-fraction; 3H-diazepam 1.5 nM or 3H-flunitrazepam 1.0 nM; pH 7.4; 30 min in ice; test concentration not given
# [3] = Protection against clonic seizures caused by pentylenetetrazole in rats; type: in vivo, rat; conditions: pentylenetetrazole 23 mg/kg i.v. at 30 or 60 min
# Procedure: The anti-anxiety and anticonvulsant properties of the novel compounds of the present invention have been established in a test which indicates anxiolytic activity by the measure of protection from convulsions resulting from the administration of pentylenetetrazole. Single or graded dose levels of the test compounds were administered orally or intraperitoneally in a 2% starch vehicle, containing 0.5% v/v polyethylene glycol and one drop of Polysorbate 80 to groups of at least 4 rats. At 30 or 60 minutes, the rats were treated intravenously with pentylenetetrazole at a dose of 23 mg/kg of body weight. This dose is estimated to cause clonic seizures in 99% of unprotected rats. It has Been reported [R. T. Hill and D. H. Tedeschi, "Animal Testing and Screening Procedures in Evaluating Psychotropic Drugs" in "An Introduction to Psychopharmacology",Eds. R. R. Rech and K. E. Moore, Raven Press, N.Y., pp 237-288 (1971)]that there is a high degree of correlation between antagonism of pentylenetetrazole seizures in rats and anti-anxiety or anticonvulsant effects in higher warm-blooded animals.
# [4] = Rattus norvegicus, 25 mg/kg oral or i.p., read-out: % of Rats Protected
smiles,measurement,setting,value
"O=C(c1ccco1)c1cnn2c(-c3cccc(-n4ccnc4)c3)ccnc12 [Example 5, 2-furanyl[7-[3-(1H-imidazol-1-yl)-phenyl]-pyrazolo[1,5-a]pyrimidin-3-yl]methanone]",Nonconditional Passive Avoidance Test result,[1],active
same,% Inhibition,[2],72%
same,responders at 25 mg/kg,[3]; [4],100%
"O=C(c1ccncc1)c1cnn2c(-c3cccc(-n4ccnc4)c3)ccnc12 [Example 17, [7-[3-(1H-imidazol-1-yl)-phenyl]pyrazolo[1,5-a]pyrimidin-3-yl]-4-pyridinylmethanone]",Nonconditional Passive Avoidance Test result,[1],active
same,% Inhibition,[2],90%
same,% of Rats Protected (result in words),[3]; 25 mg/kg oral or i.p.,inactive
"Cc1cn(-c2cccc(-c3ccnc4c(C(=O)c5ccccc5)cnn34)c2)cn1 [Example 14, [7-[3-(4-methyl-1H-imidazol-1-yl)-phenyl]pyrazolo[1,5-a]pyrimidin-3-yl]-phenylmethanone compd. with dichloromethane (20:1)]",Nonconditional Passive Avoidance Test result,[1],active
same,% Inhibition,[2],93%
same,responders at 25 mg/kg,[3]; [4],100%
"Cc1cn(-c2cccc(-c3ccnc4c(C(=O)c5cccs5)cnn34)c2)cn1 [Example 8, [7-[3-(4-methyl-1H-imidazol-1-yl)-phenyl]pyrazolo[1,5-a]pyrimidin-3-yl]-2-thienyl-methanone]",Nonconditional Passive Avoidance Test result,[1],active
same,% Inhibition,[2],75%
same,responders at 25 mg/kg,[3]; [4],75%
"O=C(c1cccs1)c1cnn2c(-c3cccc(-n4ccnc4)c3)ccnc12 [Example 11, [7-[3-(1H-imidazol-1-yl)phenyl]pyrazolo[1,5-a]pyrimidin-3-yl]-2-thienyl-methanone]",Nonconditional Passive Avoidance Test result,[1],inactive
same,% Inhibition,[2],100%
same,responders at 25 mg/kg,[3]; [4],50%
"Cc1nccn1-c1cccc(-c2ccnc3c(Cl)cnn23)c1 [Example 12, 3-chloro-7-[3-(2-methyl-1H-imidazol-1-yl)phenyl]pyrazolo[1,5-a]pyrimidine compd. with dichloromethane (20:1)]",Nonconditional Passive Avoidance Test result,[1],active
same,responders at 25 mg/kg,[3]; [4],100%
"CCc1nccn1-c1cccc(-c2ccnc3c(C(=O)c4ccccc4)cnn23)c1 [Example 15, [7-[3-(2-ethyl-1H-imidazol-1-yl)-phenyl]pyrazolo[1,5-a]pyrimidin-3-yl]-phenylmethanone]",Nonconditional Passive Avoidance Test result,[1],active
same,% Inhibition,[2],98%
same,% of Rats Protected (result in words),[3]; 6.25 mg/kg oral or i.p.,active
"Cc1cn(-c2cccc(-c3ccnc4c(C(=O)c5ccco5)cnn34)c2)cn1 [Example 9, 2-furanyl[7-[3-(4-methyl-1H-imidazol-1-yl)phenyl]pyrazolo[1,5-a]pyrimidin-3-yl]methanone compd. with dichloromethane (20:1)]",Nonconditional Passive Avoidance Test result,[1],active
same,% Inhibition,[2],98%
same,responders at 25 mg/kg,[3]; [4],50%
"Cc1cn(-c2cccc(-c3ccnc4c(C#N)cnn34)c2)cn1 [Example 20, 7-[3-(4-methyl-1H-imidazol-1-yl)-phenyl]pyrazolo[1,5-a]pyrimidine-3-carbonitrile]",Nonconditional Passive Avoidance Test result,[1],inactive
same,responders at 25 mg/kg,[3]; [4],0%
"Cc1nccn1-c1cccc(-c2ccnc3c(C(=O)c4ccccc4)cnn23)c1 [Example 1, [7-[3-(2-Methyl-1H-imidazol-1-yl)phenyl]pyrazolo[1,5-a]pyrimidin-3-yl]phenylmethanone compound with dichloromethane (20:1;)]",Nonconditional Passive Avoidance Test result,[1],active
same,% Inhibition,[2],98%
same,responders at 25 mg/kg,[3]; [4],100%
"O=C(c1ccccc1)c1cnn2c(-c3cccc(-n4ccnc4)c3)ccnc12 [Example 4, [7-[3-(1H-imidazol-1-yl)phenyl]pyrazolo[1,5-a]pyrimidin-3-yl]phenylmethanone]",Nonconditional Passive Avoidance Test result,[1],inactive
same,% Inhibition,[2],94%
same,responders at 25 mg/kg,[3]; [4],100%
"Cc1nccn1-c1cccc(-c2ccnc3c(C#N)cnn23)c1 [Example 2, 7-[3-(2-methyl-1H-imidazol-1-yl)-phenyl]pyrazolo[1,5-a]pyrimidine-3-carbonitrile compd. with dichloromethane 20:1]",Nonconditional Passive Avoidance Test result,[1],inactive
same,% Inhibition,[2],88%
same,responders at 25 mg/kg,[3]; [4],75%
"CCOC(=O)c1cnn2c(-c3cccc(-n4ccnc4C)c3)ccnc12 [Example 21, ethyl 7-[3-(2-methyl-1H-imidazol-1-yl)phenyl]pyrazolo[1,5-a]pyrimidine-3-carboxylate]",Nonconditional Passive Avoidance Test result,[1],inactive
same,% Inhibition (result in words),[2],inactive
same,responders at 25 mg/kg,[3]; [4],0%
"Cc1nccn1-c1cccc(-c2ccnc3c(C#N)c(N)nn23)c1.Cl [Example 19, 2-amino-7-[3-(2-methyl-1H-imidazol-1-yl)phenyl]pyrazolo-[1,5-a]pyrimidine-3-carbonitrile monohydrochloride]",Nonconditional Passive Avoidance Test result,[1],active
same,responders at 3.1 mg/kg,"[3]; Rattus norvegicus, 3.1 mg/kg oral or i.p., read-out: % of Rats Protected",50%
"c1cc(-c2ccnc3ccnn23)cc(-n2ccnc2)c1 [Example 6, 7-[3-(1H-imidazol-1-yl)-phenyl]pyrazolo[1,5-a]pyrimidine]",Nonconditional Passive Avoidance Test result,[1],inactive
same,% Inhibition,[2],72%
same,responders at 25 mg/kg,[3]; [4],0%
"N#Cc1cnn2c(-c3cccc(-n4ccnc4)c3)ccnc12 [Example 3, 7-[3-(1H-imidazol-1-yl)phenyl]-pyrazolo[1,5-a]pyrimidine-3-carbonitrile]",Nonconditional Passive Avoidance Test result,[1],active
same,% Inhibition,[2],44%
same,responders at 25 mg/kg,[3]; [4],100%
"Cc1nccn1-c1cccc(-c2ccnc3c(C(=O)c4cccs4)cnn23)c1 [Example 10, [7-[3-(2-methyl-1H-imidazol-1-yl)-phenyl]pyrazolo[1,5-a]pyrimidin-3-yl]-2-thienyl-methanone]",Nonconditional Passive Avoidance Test result,[1],active
same,% Inhibition,[2],99%
same,responders at 25 mg/kg,[3]; [4],100%
"Cc1nccn1-c1cccc(-c2ccnc3ccnn23)c1 [Example 13, 7-[3-(2-methyl-1H-imidazol-1-yl)-phenyl]pyrazolo[1,5-a]pyrimidine]",Nonconditional Passive Avoidance Test result,[1],active
same,responders at 25 mg/kg,[3]; [4],50%
"Cc1nccn1-c1cccc(-c2ccnc3c(C(=O)c4ccco4)cnn23)c1 [Example 7, 2-furanyl[7-[3-(2-methyl-1H-imidazol-1-yl)phenyl]pyrazolo[1,5-a]pyrimidin-3-yl]methanone compd. with dichloromethane (100:3)]",Nonconditional Passive Avoidance Test result,[1],active
same,% Inhibition,[2],101%
same,responders at 25 mg/kg,[3]; [4],25%
